Publication PMC8147293, “Library of Selenocyanate and Diselenide Derivatives as In Vivo Antichagasic Compounds Targeting Trypanosoma cruzi Mitochondrion” (Pharmaceuticals, 2021)

Columns and labels:
[1] = test system: Trypanosoma cruzi amastigotes in Vero cells; assay: Infection rate and amastigotes per Vero cell over 10 days; format: cell-based; settings: IC25 concentrations, measured at 2 days intervals for 10 days
Experimental: Before going ahead on in vivo trials, the in vitro infection rate and the average number of amastigotes per Vero cell were also measured at 2 days intervals for 10 days after treating the infected cultures with BZN and potential candidates (8, 10, and 15) (Figure 1) at ICH25 concentrations resulting from amastigotes screening. […]. Fast-acting drugs are urgently needed, and this feature is an additional advantage since they can eliminate the parasite in a few doses.
(§1) Trypanocidal activity against amastigotes was determined according to the literature reported previously. […]. […] Each compound concentration was tested in triplicate in four separate determinations.
Figure 1 (A) Percentage of infected Vero cells and (B) number of amastigotes of Trypanosoma cruzi per Vero cell exposed to benznidazole (BZN), 8, 10 and 15. Values constitute means of three separate determinations ± standard deviation. * Significant differences between untreated and treated parasites for α = 0.05. dpi, days post-infection.

[2] = test system: Trypanosoma cruzi intracellular amastigotes; assay: Screening against intracellular amastigotes in Vero cells (Giemsa counting); format: cell-based
Experimental: as §1

[3] = test system: epimastigotes of T. cruzi Arequipa; assay: 1H NMR analysis of excreted metabolites; format: cell-based, Trypanosoma cruzi; settings: IC25 concentrations, 72 h
Experimental: 5 × 10^5 epimastigotes·mL^−1 of T. cruzi Arequipa were treated by adding the tested compounds at IC25 concentrations in 25 cm^2 cell culture flasks at 28 °C for 72 h. Untreated controls were also included. Cultures were then centrifuged and filtered, and the metabolites of the supernatants were analyzed using a ^1H NMR spectrometer (VARIAN DIRECT DRIVE 500 MHz […]) with AutoX probe, D2O as solvent and 2,2-dimethyl-2-silapentane-5-sulphonate as the reference signal. Chemical shifts were expressed in parts per million (ppm), and analyses were conducted as previously reported.

[4] = test system: Trypanosoma cruzi bloodstream trypomastigotes (BTs); assay: Screening against bloodstream trypomastigotes (resazurin); format: cell-based
Experimental: 2 × 10^6 Bloodstream trypomastigotes (BTs), obtained by cardiac puncture from infected BALB/c mice as previously described, were treated by adding the tested compounds at a concentration range from 50 to 0.1 µM in 96-well microplates (200 µL·well^−1) at 37 °C. After 24 h of treatment, resazurin sodium salt (Sigma-Aldrich) was added to be incubated for further 4 h. Finally, trypanocidal activity was determined following the same procedure as described to assess the trypanocidal activity in the epimastigotes. Each compound concentration was tested in triplicate in three independent experiments.

[5] = format: in vivo; settings: BALB/c mice, 20 mg/kg per day for 5 days
Experimental: Finally, biochemical analyses were performed to assess the toxicity associated to the treatment of compound 8. Kidney, heart and liver biochemical markers were measured, including values from uninfected and BZN-treated mice (Table S2). […] The low toxicity allows compound 8 to be tested at higher doses, establishing an improved treatment schedule based on pharmacokinetics in order to reach a total parasite clearance.
All in vivo assays for the evaluation of compounds in the acute and chronic CD (Scheme 1)—monitoring of parasitemia, immunosuppression, PCR [59, 60], ELISA [56], and clinical analysis [56]—were performed as previously described. PCR was based on the Spliced Leader (SL) intergenic region sequence of T. cruzi (for detailed description, see literature reported previously).

Compound: FC(F)(F)c1ccc(C[Se][Se]Cc2ccc(C(F)(F)F)cc2)cc1 [compound 8]
- infection rate and average number of amastigotes per Vero cell [1]: decrease in both infection rate and number of amastigotes per cell in a time-dependent manner
- Selectivity Index Amast. ([2]; IC50 Vero cells/IC50 amastigotes): 55
- IC50 ([2]; Trypanosoma cruzi, Table 1, intracellular amastigotes in Vero cells, 72 h, read-out: Activity IC50 Amast.): 0.8 ± 0.2 µM
- variation of excreted metabolites versus untreated parasites [3]: < 10%
- Selectivity Index Trypomast. ([4]; IC50 Vero cells/IC50 trypomastigotes): 30
- IC50 ([4]; Trypanosoma cruzi, Table 1, bloodstream trypomastigotes, 24 h treatment + 4 h resazurin, read-out: Activity IC50 Trypomast.): 1.5 ± 0.3 µM
- death and body mass loss after treatment [5]: none of the mice died nor lost more than 10% body mass
- kidney, heart and liver biochemical markers [5]: disturbed 2 days after treatment
